Laboratory results as given in US20050181459A1, “Method for mapping and eliminating T cell epitopes” (priority 2002, published 2005).
Where no end group is shown, it is not given here.

Key:
[1] = Solubility of IFNα peptides; format: physicochemical; conditions: in the T cell assay of Example 6
PBMC = experiment: T cell activation assay (time course) of IFNα peptides, PBMC from 20 healthy donors and 20 IFN α2b-treated HCV patients; format: cell-based, human; conditions: 20 healthy donors and 20 HCV patients previously treated with IFN α2b; 6-9 days culture; 3H-thymidine

Sequence: EMIQQIFNLFSTKDS [compound 20, EMIQQIFNLFSTKDS]
- solubility of peptide [1]: insoluble

Sequence: FNLFSTKDSSAAWDE (Potential T-cell Epitopes) [peptide 22]
- percentage of donors whose PBMC responded to a peptide (SI greater than about 1.95) (PBMC): 15%

Sequence: KEDSILAVRKYFQRI (Potential T-cell Epitopes) [compound 38]
- percentage of donors whose PBMC responded to a peptide (SI greater than about 1.95) (PBMC): 15%

Sequence: RRISLFSCLKDRHDF (Potential T-cell Epitopes) [compound 8]
- percentage of donors whose PBMC responded to a peptide (SI greater than about 1.95) (PBMC): 15%

Sequence: SILAVRKYFQRITLY (Potential T-cell Epitopes) [peptide 39]
- percentage of donors whose PBMC responded to a peptide (SI greater than about 1.95) (PBMC): 25%

Sequence: SLFSCLKDRHDFGFP (Potential T-cell Epitopes) [compound 9]
- percentage of donors whose PBMC responded to a peptide (SI greater than about 1.95) (PBMC): 15%

Sequence: VLHEMIQQIFNLFST [compound 19, VLHEMIQQIFNLFST]
- solubility of peptide [1]: insoluble
